How the values were obtained:
[1] = logP by LC-MS, method [b], acidic range pH 2.7; format: physicochemical; settings: pH 2.7
Meloidogyne incognita = experiment: Meloidogyne test (spray treatment); format: in vivo; settings: concentration 20 ppm; lettuce roots
Description: Containers are filled with sand, active compound solution, Meloidogyne incognita egg/larvae suspension and lettuce seeds. The lettuce seeds germinate and the plants develop. On the roots, galls are formed. After the desired period of time, the nematicidal activity is determined by the formation of galls in %. 100% means that no galls were found; 0% means that the number of galls on the treated plants corresponds to that of the untreated control.

[2] = system: Capsella bursa-pastoris (shepherd's purse); experiment: Herbicidal pre-emergence action (PE), CAPBP; format: in vivo; settings: dose 1000 g/ha, visual assessment after 2 weeks
Excerpt: (§1) 1. Herbicidal Pre-Emergence Action (═Pe)
(§2) Seeds of monocotyledonous and dicotyledonous harmful plants are placed in sandy loam and covered with soil. The compounds according to the invention, formulated as emulsion concentrates (EC), are then, as an aqueous emulsion with a water application rate of 800 l/ha (converted), applied to the surface of the covering soil.
(§3) After the treatment, the pots are placed in a greenhouse and kept under good growth conditions for the test plants. The visual assessment of the damage on the test plants is carried out after a trial period of 2 weeks by comparison with untreated controls (herbicidal effect in percent (%): 100% effect=the plants have died, 0% effect=like control plants). CAPBP=Capsella bursa-pastoris (shepherd's purse), STEME=Stellaria media (common chickweed)

[3] = system: Stellaria media (common chickweed); experiment: Herbicidal pre-emergence action (PE), STEME; format: in vivo; settings: dose 1000 g/ha, visual assessment after 2 weeks
Excerpt: as §1, §2, §3

[4] = system: Capsella bursa-pastoris (shepherd's purse); experiment: Herbicidal post-emergence action (PO), CAPBP; format: in vivo; settings: dose 1000 g/ha, rated visually after about 2 weeks
Description: (§4) 2. Herbicidal Post-Emergence Action (═PO)
(§5) Seeds of monocotyledonous and dicotyledonous harmful plants are placed in sandy loam, covered with soil and cultivated in a greenhouse under good growth conditions. About 2 weeks after sowing, the test plants are treated at the one-leaf stage. To this end, the compounds according to the invention, formulated as emulsion concentrates (EC), as an aqueous emulsion with a water application rate of 800 l/ha (converted), are sprayed onto the green parts of the plants. After the test plants have been kept in the greenhouse under optimum growth conditions for about 2 weeks, the effect of the preparations is rated visually in comparison to untreated controls (herbicidal effect in percent (%): 100% effect=the plants have died, 0% effect=like control plants). CAPBP=Capsella bursa-pastoris (shepherd's purse), STEME=Stellaria media (common chickweed), ABUTH=Abutilon theophrasti (velvetleaf), AMARE=Amaranthus retroflexus (redroot pigweed)

[5] = system: Stellaria media (common chickweed); experiment: Herbicidal post-emergence action (PO), STEME; format: in vivo; settings: dose 1000 g/ha, rated visually after about 2 weeks
Description: as §4, §5

[6] = system: Amaranthus retroflexus (redroot pigweed); experiment: Herbicidal post-emergence action (PO), AMARE; format: in vivo; settings: dose 1000 g/ha, rated visually after about 2 weeks
Description: as §4, §5

[7] = system: Abutilon theophrasti (velvetleaf); experiment: Herbicidal post-emergence action (PO), ABUTH; format: in vivo; settings: dose 1000 g/ha, rated visually after about 2 weeks
Description: as §4, §5

[8] = system: Spodoptera frugiperda larvae; experiment: Spodoptera frugiperda test (SPDFR spray application); format: in vivo; settings: application rate 500 g/ha; maize plants
Description: Spodoptera frugiperda Test (SPDFR Spray Application)
Solvents: 78.0 parts by weight of acetone • • 1.5 parts by weight of dimethylformamide Emulsifier: 0.6 part by weight of alkylaryl polyglycol ether
Maize plants (Zea mays) are watered with an active compound preparation of the desired concentration and infected with Spodoptera frugiperda larvae.
After the desired period of time, the kill in % is determined. 100% means that all larvae have been killed; 0% means that none of the larvae have been killed.

| Compound | log p [1] | efficacy (nematicidal activity by formation of galls) (Meloidogyne incognita) | herbicidal effect CAPBP [2] | herbicidal effect STEME [3] | herbicidal effect CAPBP [4] | herbicidal effect STEME [5] | herbicidal effect AMARE [6] | herbicidal effect ABUTH [7] | efficacy (kill in %) [8] |
| --- | --- | --- | --- | --- | --- | --- | --- | --- | --- |
| CC(=O)Nc1ccc(Nc2ncc(Cl)c(NC3CCC3)n2)cc1Cl [Compound 118] | 1.78[b] | > 80% | – | – | – | – | – | – | – |
| CS(=O)(=O)Cc1cccc(Nc2ncc(Br)c(NC3CCC3)n2)c1 [Compound 88] | 1.66[b] | – | 90% | 80% | 70% | 80% | – | – | – |
| CC(=O)Nc1cc(Nc2ncc(Cl)c(NC3CCC3)n2)ccc1C [Compound 142] | 1.38[b] | – | 80% | 70% | – | – | 80% | 70% | – |
| O=C(O)c1ccc(Nc2ncc(Br)c(NC3CCC3)n2)cc1 [Compound 156] | 1.94[b] | – | 70% | 70% | – | – | – | – | – |
| CN(C)C(=O)c1ccc(Nc2ncc(C(F)(F)F)c(NC3CCC3)n2)cc1 [Compound 221] | 2.48[b] | – | – | – | – | – | – | – | ≥ 80% |

Reference: US20110105472A1, “Diaminopyrimidines as crop protection agents” (Bayer CropScience AG, priority 2008, published 2011)
